Broadly, the Km is the concentration of substrate that gives half-maximal velocity. As usually defined, the Vmax is the rate approached at saturating substrate. Broadly, the kcat is the maximal rate divided by the concentration of active sites. In general, kcat/Km refers to the turnover number divided by the Michaelis constant.

Data on five molecules can be found in publication PMC8207662, “Divergent camptothecin biosynthetic pathway in Ophiorrhiza pumila” (BMC Biology, 2021).

Substitutions are numbered along the chain they refer to.

For data set [1], the target named is T1, OpLAMT (Ophiorrhiza pumila, UniProt A0A8F2YIU9).
T1 construct: gene LAMT; recombinant from pET-30a in E. coli BL21(DE3), Ni resin purified
T1 sequence (A0A8F2YIU9 1-381): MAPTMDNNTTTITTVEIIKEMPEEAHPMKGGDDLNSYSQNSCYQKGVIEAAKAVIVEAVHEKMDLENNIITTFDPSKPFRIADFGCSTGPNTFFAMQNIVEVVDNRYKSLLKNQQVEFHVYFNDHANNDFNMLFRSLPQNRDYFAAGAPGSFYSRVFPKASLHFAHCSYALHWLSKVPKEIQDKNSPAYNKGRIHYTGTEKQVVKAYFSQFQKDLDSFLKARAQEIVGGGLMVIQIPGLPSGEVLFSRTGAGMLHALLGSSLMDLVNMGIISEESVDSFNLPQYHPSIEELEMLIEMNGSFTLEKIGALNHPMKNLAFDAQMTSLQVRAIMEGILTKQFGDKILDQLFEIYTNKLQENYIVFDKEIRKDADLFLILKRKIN
The data set is described as follows: HPLC assay, loganin formation. Conditions: 1 mM SAM; pH 7.5; 30 °C. The data set is classed as biochemical.

In another data set the target is T2, CaSTR3 (Camptotheca acuminata, UniProt A0A8F2YIV8).
T2 construct: gene STR3; recombinant from pET30a in E. coli BL21(DE3), Ni resin purified
T2 sequence (A0A8F2YIV8 31-330): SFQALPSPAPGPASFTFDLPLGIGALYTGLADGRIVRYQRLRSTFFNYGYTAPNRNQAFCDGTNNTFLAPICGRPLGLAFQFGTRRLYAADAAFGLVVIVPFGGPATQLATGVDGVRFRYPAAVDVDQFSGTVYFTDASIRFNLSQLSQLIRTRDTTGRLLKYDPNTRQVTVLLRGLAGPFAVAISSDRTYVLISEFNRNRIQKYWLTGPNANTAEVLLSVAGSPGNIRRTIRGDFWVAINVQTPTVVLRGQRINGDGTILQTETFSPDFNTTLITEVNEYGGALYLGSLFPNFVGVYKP
The data set is described as follows: LC-MS of strictosidine formation. The data set is classed as biochemical. Conditions: tryptamine co-substrate.

Another data set has as its target T3, CaSTR1 (Camptotheca acuminata, UniProt A0A8F2YIY3).
T3 construct: gene STR1; recombinant from pET30a in E. coli BL21(DE3), Ni resin purified
T3 sequence (A0A8F2YIY3 73-370): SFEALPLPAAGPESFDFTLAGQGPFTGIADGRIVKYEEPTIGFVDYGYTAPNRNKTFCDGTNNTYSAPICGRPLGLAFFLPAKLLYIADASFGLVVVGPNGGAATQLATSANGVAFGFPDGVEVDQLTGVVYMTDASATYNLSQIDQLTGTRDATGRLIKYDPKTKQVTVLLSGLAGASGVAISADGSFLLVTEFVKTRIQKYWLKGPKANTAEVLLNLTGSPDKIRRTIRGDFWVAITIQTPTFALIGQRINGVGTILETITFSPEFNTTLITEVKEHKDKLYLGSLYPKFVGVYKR
The data set is described as follows: LC-MS of strictosidine formation. The data set is classed as biochemical. Conditions: tryptamine co-substrate.

Data set [2] has as its target T4, CaSTR2 (Camptotheca acuminata, UniProt A0A8F2YJ04).
T4 construct: gene STR2; recombinant from pET30a in E. coli BL21(DE3), Ni resin purified
T4 sequence (A0A8F2YJ04 32-329): T3 sequence (A0A8F2YIY3 73-370) with P39S, S66L, S91G, A185V, I238V, I240V, H279Y
Nature of the data set: LC-MS of strictosidine formation. The format is biochemical. Conditions: tryptamine co-substrate.

The target of data set [3] is T4, CaSTR2. The data set is described as follows: LC-MS of strictosidinic acid formation. The data set is classed as biochemical. Conditions: tryptamine co-substrate.
Data set [4] has as its target T1, OpLAMT. Nature of the data set: assay of secologanin formation, printed as microsome assay with recombinant OpLAMT. The format is biochemical. Conditions: SAM.
In a further data set the target is T5, OpSLS6 (Ophiorrhiza pumila, UniProt A0A8F3BQ54).
T5 construct: gene SLS6; expressed from pESC-Leu in yeast WAT11, microsomes
T5 sequence (A0A8F3BQ54 1-516): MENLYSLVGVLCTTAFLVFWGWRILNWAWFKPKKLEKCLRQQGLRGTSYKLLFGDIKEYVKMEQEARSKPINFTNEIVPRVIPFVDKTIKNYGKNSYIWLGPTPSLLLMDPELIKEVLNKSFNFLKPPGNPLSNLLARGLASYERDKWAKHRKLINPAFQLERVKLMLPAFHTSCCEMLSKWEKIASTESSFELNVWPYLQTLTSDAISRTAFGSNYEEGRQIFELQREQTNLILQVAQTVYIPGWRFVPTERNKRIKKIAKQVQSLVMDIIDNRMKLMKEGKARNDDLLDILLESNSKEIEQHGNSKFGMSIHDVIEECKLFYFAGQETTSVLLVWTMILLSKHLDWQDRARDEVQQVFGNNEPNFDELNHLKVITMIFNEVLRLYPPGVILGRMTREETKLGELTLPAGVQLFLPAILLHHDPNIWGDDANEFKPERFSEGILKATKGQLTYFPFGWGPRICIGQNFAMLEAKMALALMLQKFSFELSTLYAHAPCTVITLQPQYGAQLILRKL
The data set is described as follows: yeast microsome assay, HPLC of secologanin. The format is biochemical. Conditions: 1 mM NADPH; 30 °C.

The next data set addresses T6, OpSLS4 (Ophiorrhiza pumila, UniProt A0A8F3BRW9).
T6 construct: gene SLS4; expressed from pESC-Leu in yeast WAT11, microsomes
Nature of the data set: yeast microsome assay, HPLC of secologanin. Conditions: 1 mM NADPH; 30 °C. The format is biochemical.

A further data set has as its target T7, OpSLS5 (Ophiorrhiza pumila, UniProt A0A8F3BPP9).
T7 construct: gene SLS5; expressed from pESC-Leu in yeast WAT11, microsomes
T7 sequence (A0A8F3BPP9 1-521): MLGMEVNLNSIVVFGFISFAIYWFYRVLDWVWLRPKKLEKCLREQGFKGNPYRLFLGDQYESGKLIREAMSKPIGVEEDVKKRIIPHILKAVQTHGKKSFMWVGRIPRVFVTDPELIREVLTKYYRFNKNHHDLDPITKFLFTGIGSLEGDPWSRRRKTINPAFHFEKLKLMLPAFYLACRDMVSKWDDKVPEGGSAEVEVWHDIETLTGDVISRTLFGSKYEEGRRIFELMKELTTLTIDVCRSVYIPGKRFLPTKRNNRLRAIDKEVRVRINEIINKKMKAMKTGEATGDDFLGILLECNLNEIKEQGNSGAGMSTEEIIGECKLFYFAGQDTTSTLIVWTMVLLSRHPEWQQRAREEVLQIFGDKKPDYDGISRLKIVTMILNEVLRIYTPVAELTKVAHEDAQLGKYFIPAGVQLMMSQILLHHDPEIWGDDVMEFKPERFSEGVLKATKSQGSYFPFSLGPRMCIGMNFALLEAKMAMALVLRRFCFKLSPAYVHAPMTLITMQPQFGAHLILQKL
Nature of the data set: yeast microsome assay, HPLC of secologanin. Conditions: 1 mM NADPH; 30 °C. The data set is classed as biochemical.

The target of the next data set is T8, OpSLS3 (Ophiorrhiza pumila, UniProt A0A8F3BRG6).
T8 construct: gene SLS3; expressed from pESC-Leu in yeast WAT11, microsomes
T8 sequence (A0A8F3BRG6 1-521): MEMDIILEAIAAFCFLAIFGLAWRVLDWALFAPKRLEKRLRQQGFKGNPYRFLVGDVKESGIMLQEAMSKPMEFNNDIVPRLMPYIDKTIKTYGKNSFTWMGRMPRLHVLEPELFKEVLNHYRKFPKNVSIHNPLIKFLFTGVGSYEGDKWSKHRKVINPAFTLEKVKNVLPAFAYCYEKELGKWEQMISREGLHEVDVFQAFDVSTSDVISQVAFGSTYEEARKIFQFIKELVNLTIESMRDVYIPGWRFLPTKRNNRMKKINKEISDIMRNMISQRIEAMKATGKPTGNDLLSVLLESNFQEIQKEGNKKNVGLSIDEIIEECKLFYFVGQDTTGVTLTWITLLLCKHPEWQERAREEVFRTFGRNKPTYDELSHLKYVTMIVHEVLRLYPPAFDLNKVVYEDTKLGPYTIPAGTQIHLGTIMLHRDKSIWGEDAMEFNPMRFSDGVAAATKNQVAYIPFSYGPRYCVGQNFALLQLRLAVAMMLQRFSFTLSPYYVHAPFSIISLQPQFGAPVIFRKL
The data set is described as follows: yeast microsome assay, HPLC of secologanin. The format is biochemical. Conditions: 1 mM NADPH; 30 °C.

A further data set has as its target T9, OpSLS1 (Ophiorrhiza pumila, UniProt A0A8F2YIW0).
T9 construct: gene SLS1; expressed from pESC-Leu in yeast WAT11, microsomes
T9 sequence (A0A8F2YIW0 1-522): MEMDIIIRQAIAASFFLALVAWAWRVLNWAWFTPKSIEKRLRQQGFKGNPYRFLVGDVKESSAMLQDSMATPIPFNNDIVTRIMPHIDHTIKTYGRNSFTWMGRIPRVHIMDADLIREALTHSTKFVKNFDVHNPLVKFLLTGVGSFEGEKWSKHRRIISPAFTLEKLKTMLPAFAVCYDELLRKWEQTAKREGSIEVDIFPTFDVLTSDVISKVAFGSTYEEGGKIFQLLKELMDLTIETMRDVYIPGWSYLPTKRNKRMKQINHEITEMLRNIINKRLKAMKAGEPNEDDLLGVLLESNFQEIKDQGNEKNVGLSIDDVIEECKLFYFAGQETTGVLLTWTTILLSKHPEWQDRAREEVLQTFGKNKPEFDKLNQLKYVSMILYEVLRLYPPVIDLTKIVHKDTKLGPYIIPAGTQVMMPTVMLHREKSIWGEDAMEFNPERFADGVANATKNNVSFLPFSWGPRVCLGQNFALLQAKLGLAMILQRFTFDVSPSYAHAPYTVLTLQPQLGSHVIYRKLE
The data set is described as follows: yeast microsome assay, HPLC of secologanin. Conditions: 1 mM NADPH; 30 °C. The data set is classed as biochemical.

Substrate in data set [5]: C=C[C@H]1[C@H](O[C@@H]2O[C@H](CO)[C@@H](O)[C@H](O)[C@H]2O)OC=C(C(=O)OC)[C@H]1CC=O
The data set is described as follows: LC-MS of strictosidine formation. Conditions: tryptamine co-substrate. The format is biochemical, Ophiorrhiza pumila. The source says:
LC-MS of strictosidine formation on OpSTR | we furtherly characterized the kinetic parameters of OpSTR using LCMS

T6 sequence (A0A8F3BRW9 1-517): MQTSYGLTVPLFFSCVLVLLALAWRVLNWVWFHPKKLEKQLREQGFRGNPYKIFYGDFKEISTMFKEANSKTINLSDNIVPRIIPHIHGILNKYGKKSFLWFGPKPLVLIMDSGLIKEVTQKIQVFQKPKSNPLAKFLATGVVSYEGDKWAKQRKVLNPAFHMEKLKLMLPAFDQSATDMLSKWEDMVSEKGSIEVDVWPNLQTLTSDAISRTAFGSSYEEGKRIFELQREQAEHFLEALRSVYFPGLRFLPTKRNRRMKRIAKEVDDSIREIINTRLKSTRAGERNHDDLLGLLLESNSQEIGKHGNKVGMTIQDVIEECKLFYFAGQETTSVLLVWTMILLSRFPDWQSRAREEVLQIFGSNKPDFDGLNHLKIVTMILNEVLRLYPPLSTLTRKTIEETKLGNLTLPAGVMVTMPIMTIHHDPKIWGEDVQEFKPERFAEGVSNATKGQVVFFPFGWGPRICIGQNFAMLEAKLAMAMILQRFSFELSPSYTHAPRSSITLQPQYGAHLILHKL

For the molecule `C[C@@H]1[C@H]2[C@H](O[C@@H]3O[C@H](CO)[C@@H](O)[C@H](O)[C@H]3O)OC=C(C(=O)O)[C@H]2C[C@@H]1O` [loganic acid], the “HPLC assay, loganin formation” value at OpLAMT [1] is “The purified recombinant protein converted loganic acid and S-adenosyl methionine (SAM) into loganin”.
Regarding `C=C[C@H]1[C@H](O[C@@H]2O[C@H](CO)[C@@H](O)[C@H](O)[C@H]2O)OC=C(C(=O)OC)[C@H]1CC=O` [secologanin], the “LC-MS of strictosidine formation” value on CaSTR3 is “NnSTR, CaSTR1, and CaSTR3 displayed substrate specificity towards secologanin only”; at CaSTR1, “NnSTR, CaSTR1, and CaSTR3 displayed substrate specificity towards secologanin only”; at CaSTR2 [2], “OpSTR and CaSTR2 used both secologanin and secologanic acid activity as their substrates”.
As to `C=C[C@@H]1C(CC=O)C(C(=O)O)=CO[C@H]1O[C@@H]1O[C@H](CO)[C@@H](O)[C@H](O)[C@H]1O` (stereo partly drawn) [secologanic acid], the “LC-MS of strictosidinic acid formation” value on CaSTR2 [3] is “OpSTR and CaSTR2 used both secologanin and secologanic acid activity as their substrates”. Also, on OpLAMT [4], the “assay of secologanin formation, printed as microsome assay with recombinant OpLA” value was “a microsome assay with secologanic acid as a substrate for recombinant OpLAMT revealed methylation”.
In the case of `COC(=O)C1=CO[C@@H](O[C@@H]2O[C@H](CO)[C@@H](O)[C@H](O)[C@H]2O)[C@@H]2[C@@H](C)[C@@H](O)C[C@H]12` [loganin], the “yeast microsome assay, HPLC of secologanin” value on OpSLS6 is given as “five OpSLS proteins (OpSLS1, OpSLS3, OpSLS4, OpSLS5, OpSLS6) exhibited secologanin synthase activity”; on OpSLS4 it was “five OpSLS proteins (OpSLS1, OpSLS3, OpSLS4, OpSLS5, OpSLS6) exhibited secologanin synthase activity”; on OpSLS5, “five OpSLS proteins (OpSLS1, OpSLS3, OpSLS4, OpSLS5, OpSLS6) exhibited secologanin synthase activity”; at OpSLS3, “five OpSLS proteins (OpSLS1, OpSLS3, OpSLS4, OpSLS5, OpSLS6) exhibited secologanin synthase activity”; on OpSLS1 it was “five OpSLS proteins (OpSLS1, OpSLS3, OpSLS4, OpSLS5, OpSLS6) exhibited secologanin synthase activity”.

B1: OpSTR (Ophiorrhiza pumila) (protein)
chain: SPEFFEFIEAPSYGPNAYAFDSDGELYASVEDGRIIKYDKPSNKFLTHAVASPIWNNALCENNTNQDLKPLCGRVYDFGFHYETQRLYIADCYFGLGFVGPDGGHAIQLATSGDGVEFKWLYALAIDQQAGFVYVTDVSTKYDDRGVQDIIRINDTTGRLIKYDPSTEEVTVLMKGLNIPGGTEVSKDGSFVLVGEFASHRILKYWLKGPKANTSEFLLKVRGPGNIKRTKDGDFWVASSDNNGITVTPRGIRFDEFGNILEVVAIPLPYKGEHIEQVQEHDGALFVGSLFHEFVGILHNYKSSVDHHQEKNSGGLNASFKEFSSF
notes: recombinant from pET30a in E. coli BL21(DE3), Ni resin purified
For B1, in data set [5], the Km was 382 ± 68.1 µM, the maximum rate (Vmax) came out at 0.0377 µmol/min/mg, the turnover number (kcat) amounted to 0.0524 s⁻¹ and the specificity constant (kcat/Km) worked out at 137 M⁻¹ s⁻¹.
